According to patent publication US20230167408A1, “METHODS AND COMPOSITIONS FOR MAINTAINING AND EXPANDING HEMATOPOIETIC STEM CELLS” (Trailhead Biosystems Inc., priority 2021, published 2023):
“Also recorded” adds a separate entry of the source.

Assays:
Format in all cases: cell-based, human
[1] = tested on: CD34+ population of cells isolated from cord blood; experiment: Factor criticality analysis (dynamic profile analysis) of HSC expansion recipe; set-up: GATA2 expression level / MEG3 expression level / CRHBP expression level: unit not given here
Description: In this example, to assess the impact of elimination of each validated factor identified as described in Example 1, dynamic profile analysis was used and compared the expression level of genes of interest in the absence of each finalized factor while others are kept present. […] The results of the criticality analysis for the factors FICZ, LPA, Vit. C and Activin A are shown in FIG. 6A-B. The results of the criticality analysis for VPA are shown in FIG. 7A-B. The results of the criticality analysis for Yhhu 3792 are shown in and FIG. 8A-B.
For the HSC expansion recipe, each of the six finalized factors were removed while other five factors were present and the expression levels of GATA2, HOXA5, CRHBP was assessed compared to the presence of all […]. Because SCF and TPO are cytokines impacting cell growth and survival, our recipe included these cytokines as well. When FICZ was removed, values for GATA2 expression decreased from 642 to 512, while HOXA5 and MEG3 expression was unchanged. […] Removal of Vit.C decreased the level of MEG3 from 82 to 53. Activin A is a critical factor for MEG3, since its removal decreases MEG3 levels from 81 to 40.

[2] = tested on: CD34+ population of cells isolated from cord blood; experiment: HD-DoE effector experiments, gene expression modeling after 3-day treatment; details: for factor contribution (impact) on expression of CRHBP: 8-factor experiment tropoelastin, lipid mixture, propionate, biotin, geltrex, N-acetyl cysteine, prostaglandin E2, VPA, FIG. 3/4; for factor contribution on expression of CRHBP: Yhhu 3792, fibronectin, TPCA-1, GW9662, Z-vad-fmk, VEGF, FIG. 5; for factor contribution on expression of MEG3: same 8-factor experiment optimized for maximum MEG3, FIG. 2
Description: This example utilizes a method of High-Dimensional Design of Experiments (HD-DoE), as previously described in Bukys et al. (2020) Iscience 23:101346. The method employs computerized design geometries to simultaneously test multiple process inputs and offers mathematical modeling of a deep effector/response space. The method allows for finding combinatorial signaling inputs that control a complex process, such as during cell differentiation. It allows testing of multiple plausible critical process parameters, as such parameters impact output responses, such as gene expression. Because gene expression provides hallmark features of the phenotype of, for example, a human cell, the method can be applied to identify, and understand, which signaling pathways control cell fate. In the current example, the HD-DOE method was applied with the intent to find conditions for expansion and maintenance of HSCs.
Specifically, to develop the HSC recipe, the impact of agonists and antagonists of multiple signaling pathways (herein called effectors) were tested on expression of two sets of 53 pre-selected genes after a 3-day treatment. Specific genes in the measured subset are highly enriched in HSC and include CRHBP, MLLT3, MEG3, MECOM, HOXA5 and GATA2. The effectors chosen include small molecules or proteins, some of which are used during in vitro expansion of HSC.
To test the effectors, experiments with at least 8 factors were designed that can assess the response of cells to 48 or more different combinations of effectors in a range of concentrations. To analyze the models, we focused on expression of genes that are either expressed or enriched in primitive HSC including CRHBP, GATA2, MLLT3 and MEG3. The impact of each effector on gene expression level is defined by a parameter called factor contribution that is calculated for each effector during the modeling. All the experiments were conducted using a CD34^+ population of cells isolated from cord blood.
To identify the recipe for HSC expansion, cells were treated with various effectors for 3 days in media containing stem cell factor (SCF) and thrombopoietin (TPO) and the gene expression of cells was modeled. […] Additionally, on this model we observed NOTCH1 upregulation and MPO downregulation. […] Previous studies have shown that NOTCH1 activation increases HSC self-renewal in vivo (Stier et al. (2002) Blood 99:2369-78).
To further improve the recipe for HSC maintenance and expansion, additional HD-DoE experiments were performed. […] The goal was to evaluate further factors to possibly increase the complexity of the signaling inputs to attain effective fate control. As previously, we focused on expression of HSC enriched genes mentioned earlier. An 8-factor experiment was performed, testing tropoelastin, lipid mixture, propionate, biotin, geltrex, N-acetyl cysteine, prostaglandin E2, and VPA. Similar to the previous experiment, CD34^+ cells were treated with 48 conditions of combinations of the factors for 3 days and gene expression analysis and modeling was performed.
To further improve the recipe for HSC maintenance and expansion, additional HD-DoE experiments were performed. Another 8-factor experiment was performed consisting of LPA, Yhhu 3792, fibronectin, TPCA-1, GW9662, Z-vad-fmk, VEGF and activin A. Similarly to the previous experiment, CD34^+ cells were treated with 48 conditions of combinations of the factors for 3 days and then gene expression analysis experiments were conducted.

CD34+ cells = experiment: Culture of CD34+ cells in the presence of commonly used cytokines
Method: To further validate the HSC culture recipe described in Example 1, CD34+ cord blood derived cells were grown for 7 days in media comprising the ingredients shown in Table 1 and flow cytometry analysis was used to assess markers of the LT-HSC state. Markers tested included Lineage (CD3, CD14, CD16, CD19, CD20, CD56), CD34, CD38, CD45RA and CD90. Additionally, cells were grown in media with SCF and TPO as a control, commonly used by others to promote HSC expansion. […] 100,000 cells were plated for each condition.

[3] = named factor removed, other factors present
[4] = 8-factor experiment LPA, FICZ, Pyrintegrin, Laminin521, G0693, Vit.C, G-SCF, activin A, 3 days, media with SCF and TPO, FIG. 1/2
[5] = 8-factor experiment LPA, activin A, 3 days
[6] = 8-factor experiment with tropoelastin ... VPA
[7] = 8-factor experiment with tropoelastin ... VPA optimized for maximum GATA2, FIG. 4

For `O=Cc1c2c(cc3c1=Nc1ccccc1-3)=Nc1ccccc1-2` [FICZ, 6-Formylindolo[3,2-b]carbazole], the GATA2 expression level ([1]; all finalized factors present) was 642, the GATA2 expression level [1, 3] was 512 and the HOXA5 expression level [1, 3] was “unchanged”. For the same molecule, the MEG3 expression level [1, 3] was “unchanged”, the “factor contribution (impact) on expression of GATA2” value (“factor contribution … of GATA2” below) [2, 4] was 21 and the “factor contribution … of GATA2” value ([2]; 8-factor experiment LPA, FICZ, Pyrintegrin, Laminin521, G0693, Vit.C, G-SCF, activin A, 3 days, media with SCF and TPO, FIG. 1/2, listed as FCIZ) was “positive impact”.

In the case of `CC(=O)N[C@@H](CS)C(=O)O` [N-acetyl cysteine], the “factor contribution (impact) on expression of CRHBP” value ([2]; 3 days) is reported as under 1.

With `CCC(=O)O` [Propionate, propionate] the “factor contribution (impact) on expression of CRHBP” value ([2]; 3 days) was 8.

Molecule `CCCC(CCC)C(=O)O` [VPA, Valproic acid] has a CRHBP expression level ([1]; all finalized factors present) of 285, an MEG3 expression level ([1]; all finalized factors present) of 106 and a CRHBP expression level [1, 3] of 138. For the same molecule, the GATA2 expression level [1, 3] was “reduced”, the MEG3 expression level [1, 3] was 52 and the “impact on expression of MEG3” value ([2]; 8-factor experiment with tropoelastin ... VPA, FIG. 4) was “positive impact”.

For `COc1cccc(Oc2cccc3nc(Nc4ccc(C(C)C)cc4)nc(N)c23)c1` [Yhhu 3792], the CRHBP expression level ([1]; all finalized factors present) was 202, the CRHBP expression level [1, 3] was 169 and the “factor contribution on expression of CRHBP” value [2, 5] was 19.

With `O=C(O)CCCC[C@@H]1SC[C@@H]2NC(=O)N[C@@H]21` [biotin] the “factor contribution (impact) on expression of CRHBP” value ([2]; 3 days) was 5.

`CCCCC[C@H](O)/C=C/[C@H]1[C@H](O)CC(=O)[C@@H]1C/C=C\CCCC(=O)O` [prostaglandin E2] was tested, and the “effect of treatment on other HSC enriched genes” value [2, 6] was “downregulates” and the “factor contribution … of GATA2” value [2, 7] was 25.

In the case of “IL6: commonly used cytokine to expand HSC”, the “lineage bias of CD34+ cells cultured in the presence of the cytokine” value (CD34+ cells) is reported as “induction of a myeloid bias”.

In the case of “L-ascorbic acid phosphate sesquimagnesium salt hydrate [Vit.C]”, the MEG3 expression level ([1]; all finalized factors present) is reported as 82, the MEG3 expression level [1, 3] is reported as 53 and the “factor contribution … of GATA2” value ([2]; 8-factor experiment LPA, FICZ, Pyrintegrin, Laminin521, G0693, Vit.C, G-SCF, activin A, 3 days, media with SCF and TPO, FIG. 1/2, hydrate) is reported as 12. For the same molecule, the “factor contribution … of GATA2” value ([2]; 8-factor experiment LPA, FICZ, Pyrintegrin, Laminin521, G0693, Vit.C, G-SCF, activin A, 3 days, media with SCF and TPO, FIG. 1/2, listed as Vit. C, hydrate) was “positive impact” and the “factor contribution on expression of MEG3” value [2] was 16.

For fibronectin, the “factor contribution on expression of CRHBP” value [2, 5] was 18.

In the case of lysophosphatidic acid [LPA], the GATA2 expression level ([1]; all finalized factors present) is reported as 644, the GATA2 expression level [1, 3] is reported as 525 and the “factor contribution on expression of CRHBP” value [2, 5] is reported as 8.

B1: Activin A: TGFb pathway agonist (protein, UniProt P08476 311-426, looked up)
Inhibin beta A chain: GLECDGKVNICCKKQFFVSFKDIGWNDWIIAPSGYHANYCEGECPSHIAGTSGSSLSFHSTVINHYRMRGHSPFANLKSCCVPTKLRPMSMLYYDDGQNIIKKDIQNMIVEECGCS
modifications: Inhibin beta A chain
notes: TGFb pathway agonist
With B1 the MEG3 expression level ([1]; all finalized factors present) was 81, the GATA2 expression level [1, 3] was “positive impact” and the HOXA5 expression level [1, 3] was “positive impact”. For the same molecule, the MEG3 expression level [1, 3] was 40, the “factor contribution … of GATA2” value [2, 4] was “modest; also recorded: positive impact” and the “factor contribution on expression of CRHBP” value [2, 5] was 26. For the same molecule, the “factor contribution on expression of MEG3” value [2] was 23.

B2: G-CSF: commonly used cytokine to expand HSC (protein, UniProt P09919 31-207, looked up)
Granulocyte …: TPLGPASSLPQSFLLKCLEQVRKIQGDGAALQEKLVSECATYKLCHPEELVLLGHSLGIPWAPLSSCPSQALQLAGCLSQLHSGLFLYQGLLQALEGISPELGPTLDTLQLDVADFATTIWQQMEELGMAPALQPTQGAMPAFASAFQRRAGGVLVASHLQSFLEVSYRVLRHLAQP
B2 was tested, and the “lineage bias of CD34+ cells cultured in the presence of the cytokine” value (CD34+ cells) was “induction of a myeloid bias”.

B3: tropoelastin: effector tested in the 8-factor experiment (protein, UniProt P15502 27-786, looked up)
Elastin: GGVPGAIPGGVPGGVFYPGAGLGALGGGALGPGGKPLKPVPGGLAGAGLGAGLGAFPAVTFPGALVPGGVADAAAAYKAAKAGAGLGGVPGVGGLGVSAGAVVPQPGAGVKPGKVPGVGLPGVYPGGVLPGARFPGVGVLPGVPTGAGVKPKAPGVGGAFAGIPGVGPFGGPQPGVPLGYPIKAPKLPGGYGLPYTTGKLPYGYGPGGVAGAAGKAGYPTGTGVGPQAAAAAAAKAAAKFGAGAAGVLPGVGGAGVPGVPGAIPGIGGIAGVGTPAAAAAAAAAAKAAKYGAAAGLVPGGPGFGPGVVGVPGAGVPGVGVPGAGIPVVPGAGIPGAAVPGVVSPEAAAKAAAKAAKYGARPGVGVGGIPTYGVGAGGFPGFGVGVGGIPGVAGVPGVGGVPGVGGVPGVGISPEAQAAAAAKAAKYGAAGAGVLGGLVPGAPGAVPGVPGTGGVPGVGTPAAAAAKAAAKAAQFGLVPGVGVAPGVGVAPGVGVAPGVGLAPGVGVAPGVGVAPGVGVAPGIGPGGVAAAAKSAAKVAAKAQLRAAAGLGAGIPGLGVGVGVPGLGVGAGVPGLGVGAGVPGFGAGADEGVRRSLSPELREGDPSSSQHLPSTPSSPRVPGALAAAKAAKYGAAVPGVLGGLGALGGVGIPGGVVGAGPAAAAAAAKAAAKAAQFGLVGAAGLGGLGVGGLGVPGVGGLGGIPPAAAAKAAKYGAAGLGGVLGGAGQFPLGGVAARPGFGLSPIFPGGACLGKACGRKRK
In the case of B3, the “effect of treatment on other HSC enriched genes” value [2, 6] is reported as “downregulates” and the “factor contribution … of GATA2” value [2, 7] is reported as 17.
